In PMC5218480 (PLoS ONE, 2017):

Tested on: MV-4-11 cells
Experiment: Gene expression microarray analysis (Affymetrix PrimeView) and GSEA
Assay type: cell-based, human
Parameters: RFU PODN (11730768_x_at) / Fold change /veh PODN (11730768_x_at) / RFU LINC00158 (11744669_a_at) / Fold change /veh LINC00158 (11744669_a_at) / RFU DUSP10 (11751237_a_at) / Fold change /veh DUSP10 (11751237_a_at) / RFU ID3 (11757404_x_at) / Fold change /veh ID3 (11757404_x_at) / RFU PLEKHG5 (11737974_s_at) / Fold change /veh PLEKHG5 (11737974_s_at) / RFU LRRC4B (11730491_at) / Fold change /veh LRRC4B (11730491_at) / RFU GIMAP4 (11747438_a_at) / Fold change /veh GIMAP4 (11747438_a_at) / RFU KRT8 (11758183_x_at) / Fold change /veh KRT8 (11758183_x_at) / RFU CNN1 (11734310_a_at) / Fold change /veh CNN1 (11734310_a_at) / RFU VPS37D (11726825_at) / Fold change /veh VPS37D (11726825_at) / RFU C10orf10 (11716522_x_at) / Fold change /veh C10orf10 (11716522_x_at) / RFU KIR2DL2 /// KIR2DL4 /// KIR2DL5A /// KIR2DL5B /// KIR2DS1 /// KIR2DS2 /// KIR2DS3 /// KIR2DS4 /// KIR3DL3 /// KIR3DL3 /// KIR3DS1 (11738374_at) / Fold change /veh KIR2DL2 /// KIR2DL4 /// KIR2DL5A /// KIR2DL5B /// KIR2DS1 /// KIR2DS2 /// KIR2DS3 /// KIR2DS4 /// KIR3DL3 /// KIR3DL3 /// KIR3DS1 (11738374_at) / RFU C1QL1 (11718748_at) / Fold change /veh C1QL1 (11718748_at) / RFU TMPRSS4 (11747572_a_at) / Fold change /veh TMPRSS4 (11747572_a_at) / RFU HAMP (11756126_x_at) / Fold change /veh HAMP (11756126_x_at) / RFU RNFT2 (11725882_a_at) / Fold change /veh RNFT2 (11725882_a_at) / RFU NR4A2 (11747474_a_at) / Fold change /veh NR4A2 (11747474_a_at) / RFU ABCC12 (11746883_a_at) / Fold change /veh ABCC12 (11746883_a_at) / RFU TMEM136 (11760407_x_at) / Fold change /veh TMEM136 (11760407_x_at) / RFU CLDN22 /// WWC2 (11732394_at) / Fold change /veh CLDN22 /// WWC2 (11732394_at) / RFU HLA-DPB1 (11760878_x_at) / Fold change /veh HLA-DPB1 (11760878_x_at) / RFU SPINT1 (11716480_a_at) / Fold change /veh SPINT1 (11716480_a_at) / RFU GAP43 (11754022_s_at) / Fold change /veh GAP43 (11754022_s_at) / RFU A4GNT (11735810_at) / Fold change /veh A4GNT (11735810_at) / RFU PRB3 (11715151_x_at) / Fold change /veh PRB3 (11715151_x_at) / RFU TUBB4B (11761932_at) / Fold change /veh TUBB4B (11761932_at) / RFU CAPN14 (11732068_a_at) / Fold change /veh CAPN14 (11732068_a_at) / RFU TMCC2 (11721928_a_at) / Fold change /veh TMCC2 (11721928_a_at) / RFU IRGQ (11745062_a_at) / Fold change /veh IRGQ (11745062_a_at) / RFU FAM174B (11720279_a_at) / Fold change /veh FAM174B (11720279_a_at) / RFU TMPRSS4 (11748680_a_at) / Fold change /veh TMPRSS4 (11748680_a_at) / RFU FAM212B (11763350_a_at) / Fold change /veh FAM212B (11763350_a_at) / RFU PLEKHG5 (11743358_a_at) / Fold change /veh PLEKHG5 (11743358_a_at) / RFU ZSCAN30 (11745921_a_at) / Fold change /veh ZSCAN30 (11745921_a_at) / RFU CMKLR1 (11741424_a_at) / Fold change /veh CMKLR1 (11741424_a_at) / RFU LOC101060620 /// MAPK8IP1 (11723275_at) / Fold change /veh LOC101060620 /// MAPK8IP1 (11723275_at) / RFU SPTSSB (11747773_x_at) / Fold change /veh SPTSSB (11747773_x_at) / RFU PRSS12 (11739890_at) / Fold change /veh PRSS12 (11739890_at) / RFU BIN1 (11741810_x_at) / Fold change /veh BIN1 (11741810_x_at) / RFU WNT11 (11732464_a_at) / Fold change /veh WNT11 (11732464_a_at) / RFU C10orf10 (11716521_a_at) / Fold change /veh C10orf10 (11716521_a_at) / RFU C5orf56 (11738089_at) / Fold change /veh C5orf56 (11738089_at) / RFU CYB561 (11721691_x_at) / Fold change /veh CYB561 (11721691_x_at) / RFU ANKRD19P (11752326_a_at) / Fold change /veh ANKRD19P (11752326_a_at) / RFU OR2T12 /// OR2T33 /// OR2T8 (11738714_s_at) / Fold change /veh OR2T12 /// OR2T33 /// OR2T8 (11738714_s_at) / RFU VCAN (11748164_a_at) / Fold change /veh VCAN (11748164_a_at) / RFU JSRP1 (11732532_at) / Fold change /veh JSRP1 (11732532_at) / RFU KRTAP10-11 (11738290_x_at) / Fold change /veh KRTAP10-11 (11738290_x_at) / RFU MYO3A (11730013_a_at) / Fold change /veh MYO3A (11730013_a_at) / RFU EBF3 (11725865_a_at) / Fold change /veh EBF3 (11725865_a_at) / RFU CAMK2N1 (11719241_x_at) / Fold change /veh CAMK2N1 (11719241_x_at) / RFU C5orf56 (11738088_a_at) / Fold change /veh C5orf56 (11738088_a_at) / RFU OLFML3 (11715873_a_at) / Fold change /veh OLFML3 (11715873_a_at) / RFU LOC100653217 /// NTM (11731650_a_at) / Fold change /veh LOC100653217 /// NTM (11731650_a_at) / RFU MAPK11 (11762145_a_at) / Fold change /veh MAPK11 (11762145_a_at) / RFU FIZ1 (11724087_x_at) / Fold change /veh FIZ1 (11724087_x_at) / RFU OASL (11726364_x_at) / Fold change /veh OASL (11726364_x_at) / RFU SOX15 (11748057_x_at) / Fold change /veh SOX15 (11748057_x_at) / RFU CD79A (11719716_a_at) / Fold change /veh CD79A (11719716_a_at) / RFU HIST1H1D (11736915_at) / Fold change /veh HIST1H1D (11736915_at) / RFU CASKIN2 (11723855_a_at) / Fold change /veh CASKIN2 (11723855_a_at) / RFU LOC730098 (11760151_x_at) / Fold change /veh LOC730098 (11760151_x_at) / RFU OR4N2 (11742367_at) / Fold change /veh OR4N2 (11742367_at) / RFU PRRT2 (11749266_a_at) / Fold change /veh PRRT2 (11749266_a_at) / RFU SNX32 (11753110_a_at) / Fold change /veh SNX32 (11753110_a_at) / RFU CDHR5 (11726645_a_at) / Fold change /veh CDHR5 (11726645_a_at) / RFU RCAN1 (11760418_a_at) / Fold change /veh RCAN1 (11760418_a_at) / RFU FAM167A (11723789_a_at) / Fold change /veh FAM167A (11723789_a_at) / RFU FAM26E (11764081_at) / Fold change /veh FAM26E (11764081_at) / RFU ISYNA1 (11749810_s_at) / Fold change /veh ISYNA1 (11749810_s_at) / RFU ACY1 (11761880_at) / Fold change /veh ACY1 (11761880_at) / RFU 11764098_at / Fold change /veh 11764098_at / RFU SAMD14 (11745864_x_at) / Fold change /veh SAMD14 (11745864_x_at) / RFU NPB (11741838_a_at) / Fold change /veh NPB (11741838_a_at) / RFU TMPRSS6 (11731388_a_at) / Fold change /veh TMPRSS6 (11731388_a_at) / RFU KRTAP10-2 (11738614_at) / Fold change /veh KRTAP10-2 (11738614_at) / RFU ARHGAP8 /// PRR5-ARHGAP8 (11727945_x_at) / Fold change /veh ARHGAP8 /// PRR5-ARHGAP8 (11727945_x_at) / RFU KRTAP5-7 /// NADSYN1 (11734609_at) / Fold change /veh KRTAP5-7 /// NADSYN1 (11734609_at) / RFU RASL12 (11751679_a_at) / Fold change /veh RASL12 (11751679_a_at) / RFU CDKN2B (11736163_a_at) / Fold change /veh CDKN2B (11736163_a_at) / RFU PRF1 (11729649_at) / Fold change /veh PRF1 (11729649_at) / RFU, ZNF638 /// ZNF638-IT1 / Fold change vs veh, ZNF638 /// ZNF638-IT1 / RFU, PANK3 / Fold change vs veh, PANK3 / RFU, SH3YL1 / Fold change vs veh, SH3YL1 / RFU, ZEB2 / Fold change vs veh, ZEB2 / RFU, NRIP1 / Fold change vs veh, NRIP1 / RFU, PTTG1IP / Fold change vs veh, PTTG1IP / RFU, CAPN2 / Fold change vs veh, CAPN2 / RFU, MED14 / Fold change vs veh, MED14 / RFU, SNORA58 / Fold change vs veh, SNORA58 / RFU, C1orf63 / Fold change vs veh, C1orf63 / RFU, LRRFIP1 / Fold change vs veh, LRRFIP1 / RFU, NDUFAF7 / Fold change vs veh, NDUFAF7 / RFU, SLC12A2 / Fold change vs veh, SLC12A2 / RFU, IBTK / Fold change vs veh, IBTK / RFU, ESF1 / Fold change vs veh, ESF1 / Fold change vs veh, TMEM50B / RFU, TAOK1 / Fold change vs veh, TAOK1 / RFU, ACBD3 / Fold change vs veh, ACBD3 / RFU, TMA16 / Fold change vs veh, TMA16 / RFU, RWDD3 / Fold change vs veh, RWDD3 / RFU, BCAT1 / Fold change vs veh, BCAT1 / RFU, EDEM3 / Fold change vs veh, EDEM3 / RFU, TMEM33 / Fold change vs veh, TMEM33 / RFU, WDR75 / Fold change vs veh, WDR75 / RFU, AHCTF1 / Fold change vs veh, AHCTF1 / RFU, TFRC / Fold change vs veh, TFRC / RFU, ZDHHC17 / Fold change vs veh, ZDHHC17 / RFU, NOM1 / Fold change vs veh, NOM1 / RFU, ARL8B / Fold change vs veh, ARL8B / RFU, ZBTB11 / Fold change vs veh, ZBTB11 / RFU, TAMM41 / Fold change vs veh, TAMM41 / RFU, KIAA1704 /// LOC100996395 / Fold change vs veh, KIAA1704 /// LOC100996395 / RFU, ING1 / Fold change vs veh, ING1 / RFU, TRMT61B / Fold change vs veh, TRMT61B / RFU, FUBP3 / Fold change vs veh, FUBP3 / RFU, TP53 / Fold change vs veh, TP53 / RFU, TNKS2 / Fold change vs veh, TNKS2 / RFU, ZFP14 / Fold change vs veh, ZFP14 / RFU, ACTR2 / Fold change vs veh, ACTR2 / RFU, PPP3R1 / Fold change vs veh, PPP3R1 / RFU, PIK3R1 / Fold change vs veh, PIK3R1 / RFU, HNRNPA1 / Fold change vs veh, HNRNPA1 / RFU, RNF170 / Fold change vs veh, RNF170 / RFU, ZNF28 / Fold change vs veh, ZNF28 / RFU, RNGTT / Fold change vs veh, RNGTT / RFU, OGT / Fold change vs veh, OGT / RFU, BRD1 / Fold change vs veh, BRD1 / RFU, MARS / Fold change vs veh, MARS / RFU, ZNF655 / Fold change vs veh, ZNF655 / RFU, FAHD1 / Fold change vs veh, FAHD1 / RFU, BDP1 / Fold change vs veh, BDP1 / RFU, LRRCC1 / Fold change vs veh, LRRCC1 / RFU, ARID1A / Fold change vs veh, ARID1A / RFU, ZNF146 / Fold change vs veh, ZNF146 / RFU, ZNF330 / Fold change vs veh, ZNF330 / RFU, GPN3 / Fold change vs veh, GPN3 / RFU, C9orf123 / Fold change vs veh, C9orf123 / RFU, N4BP2L2 / Fold change vs veh, N4BP2L2 / RFU, ARFIP1 / Fold change vs veh, ARFIP1 / RFU, FAM179B / Fold change vs veh, FAM179B / RFU, BCL10 / Fold change vs veh, BCL10 / RFU, UHRF1BP1L / Fold change vs veh, UHRF1BP1L / RFU, BET1 / Fold change vs veh, BET1 / RFU, CNOT2 / Fold change vs veh, CNOT2 / RFU, ZNF268 / Fold change vs veh, ZNF268 / Fold change vs veh, ZNF507 / RFU, DGCR2 / Fold change vs veh, DGCR2 / RFU, WDSUB1 / Fold change vs veh, WDSUB1 / Fold change vs veh, HSP90B1 /// MIR3652 / RFU, ADSS / Fold change vs veh, ADSS / RFU, GK / Fold change vs veh, GK / RFU, ZNF148 / Fold change vs veh, ZNF148 / RFU, TAF9 / Fold change vs veh, TAF9 / RFU, SLC1A5 / Fold change vs veh, SLC1A5 / RFU, SLMO2 / Fold change vs veh, SLMO2 / RFU, ABCC4 / Fold change vs veh, ABCC4 / RFU, LOC101060439 /// RAP1B / Fold change vs veh, LOC101060439 /// RAP1B / RFU, RFX7 / Fold change vs veh, RFX7 / RFU, GTPBP10 / Fold change vs veh, GTPBP10 / RFU, CNEP1R1 / Fold change vs veh, CNEP1R1 / RFU, BIVM-ERCC5 /// ERCC5 / Fold change vs veh, BIVM-ERCC5 /// ERCC5 / RFU, ILF3 / Fold change vs veh, ILF3 / RFU 11762660_at / Fold change /veh 11762660_at / RFU VCAN (11757783_s_at) / Fold change /veh VCAN (11757783_s_at) / RFU DDX43 (11728927_at) / Fold change /veh DDX43 (11728927_at) / RFU KRT8 (11758188_x_at) / Fold change /veh KRT8 (11758188_x_at) / RFU NKD1 (11759106_at) / Fold change /veh NKD1 (11759106_at) / RFU SRD5A1 (11742802_a_at) / Fold change /veh SRD5A1 (11742802_a_at) / RFU TPSAB1 /// TPSB2 (11721975_s_at) / Fold change /veh TPSAB1 /// TPSB2 (11721975_s_at) / RFU GSTM3 (11746129_a_at) / Fold change /veh GSTM3 (11746129_a_at) / RFU IL23R (11737362_x_at) / Fold change /veh IL23R (11737362_x_at) / RFU TMEM51 (11727254_a_at) / Fold change /veh TMEM51 (11727254_a_at) / RFU PIWIL2 (11732686_x_at) / Fold change /veh PIWIL2 (11732686_x_at) / RFU ORM1 (11744905_x_at) / Fold change /veh ORM1 (11744905_x_at) / RFU CCDC152 (11743942_at) / Fold change /veh CCDC152 (11743942_at) / RFU ECM1 (11717891_a_at) / Fold change /veh ECM1 (11717891_a_at) / RFU IL23R (11748794_a_at) / Fold change /veh IL23R (11748794_a_at) / RFU TNFAIP8L3 (11732012_x_at) / Fold change /veh TNFAIP8L3 (11732012_x_at) / RFU MBOAT4 (11741988_at) / Fold change /veh MBOAT4 (11741988_at) / RFU 11764193_at / Fold change /veh 11764193_at / RFU TMEM53 (11763286_at) / Fold change /veh TMEM53 (11763286_at) / RFU MAGEB2 (11727129_at) / Fold change /veh MAGEB2 (11727129_at) / RFU TMEM200A (11744735_a_at) / Fold change /veh TMEM200A (11744735_a_at) / RFU CCDC152 (11751479_a_at) / Fold change /veh CCDC152 (11751479_a_at) / RFU FAM211A (11726209_a_at) / Fold change /veh FAM211A (11726209_a_at) / RFU RGS16 (11746705_a_at) / Fold change /veh RGS16 (11746705_a_at) / RFU VCAN (11755009_s_at) / Fold change /veh VCAN (11755009_s_at) / RFU RHOB (11743442_s_at) / Fold change /veh RHOB (11743442_s_at) / RFU RGS16 (11720943_a_at) / Fold change /veh RGS16 (11720943_a_at) / RFU RGS16 (11720944_at) / Fold change /veh RGS16 (11720944_at) / RFU, VPS4B / Fold change vs veh, VPS4B / RFU, CREB1 / Fold change vs veh, CREB1 / RFU, DNAJC13 / Fold change vs veh, DNAJC13 / RFU, GNAQ / Fold change vs veh, GNAQ / RFU, CDK5R1 / Fold change vs veh, CDK5R1 / RFU, ZRANB3 / Fold change vs veh, ZRANB3 / RFU, CUL4A / Fold change vs veh, CUL4A / RFU, CCNY / Fold change vs veh, CCNY / RFU, UFL1 / Fold change vs veh, UFL1 / RFU, COG3 / Fold change vs veh, COG3 / RFU, DIAPH2 / Fold change vs veh, DIAPH2 / RFU, SKA2 / Fold change vs veh, SKA2 / RFU, AFF3 / Fold change vs veh, AFF3 / RFU, LMF1 / Fold change vs veh, LMF1 / RFU, IPO11 / Fold change vs veh, IPO11 / RFU, DFFB / Fold change vs veh, DFFB / RFU, FOXP1 / Fold change vs veh, FOXP1 / RFU, CARD8 / Fold change vs veh, CARD8 / RFU, STRN3 / Fold change vs veh, STRN3 / RFU, ADK / Fold change vs veh, ADK / RFU, RASSF2 / Fold change vs veh, RASSF2 / RFU, WIPF1 / Fold change vs veh, WIPF1 / RFU, LARP1B / Fold change vs veh, LARP1B / RFU, RASA1 / Fold change vs veh, RASA1 / RFU, RB1 / Fold change vs veh, RB1 / RFU, PPFIA1 / Fold change vs veh, PPFIA1 / RFU, MAT2A / Fold change vs veh, MAT2A / RFU, CCT5 / Fold change vs veh, CCT5 / RFU, WDR92 / Fold change vs veh, WDR92 / RFU, CUX1 / Fold change vs veh, CUX1 / RFU, TTC7A / Fold change vs veh, TTC7A / RFU, TMEM135 / Fold change vs veh, TMEM135 / RFU, DEPTOR / Fold change vs veh, DEPTOR / RFU, CPM / Fold change vs veh, CPM / RFU, DNAJB6 / Fold change vs veh, DNAJB6 / RFU, CACNA2D3 / Fold change vs veh, CACNA2D3 / RFU, DTX4 / Fold change vs veh, DTX4 / RFU, TFCP2 / Fold change vs veh, TFCP2 / RFU, GMCL1 /// GMCL1P1 / Fold change vs veh, GMCL1 /// GMCL1P1 / RFU, AEBP2 / Fold change vs veh, AEBP2 / RFU, SNHG1 /// SNORD22 /// SNORD25 /// SNORD26 /// SNORD27 /// SNORD28 /// SNORD29 /// SNORD31 / Fold change vs veh, SNHG1 /// SNORD22 /// SNORD25 /// SNORD26 /// SNORD27 /// SNORD28 /// SNORD29 /// SNORD31 / Fold change (Aza/veh), C12orf56 (ProbeSet 11735607_a_at) / Fold change (ACY-1035/veh), C12orf56 (ProbeSet 11735607_a_at) / Fold change (Aza/veh), FGFR1OP (ProbeSet 11751329_s_at) / Fold change (ACY-1035/veh), FGFR1OP (ProbeSet 11751329_s_at) / Fold change (Aza/veh), VPS36 (ProbeSet 11739960_a_at) / Fold change (ACY-1035/veh), VPS36 (ProbeSet 11739960_a_at) / RFU SYPL1 (11715823_x_at) / Fold change /veh SYPL1 (11715823_x_at) / RFU IGFBP7 (11715501_s_at) / Fold change /veh IGFBP7 (11715501_s_at) / RFU REEP3 (11722064_at) / Fold change /veh REEP3 (11722064_at) / RFU IGLL1 (11728026_x_at) / Fold change /veh IGLL1 (11728026_x_at): dose or concentration left out as unconfirmed
Conditions: ProbeSet 11753234_a_at; LIST B

Nc1ncn([C@@H]2O[C@H](CO)[C@@H](O)[C@H]2O)c(=O)n1 [azacitidine]
RFU, TAMM41: 52.96 RFU
